Target: T1, HCV NS3 protease domain (Hepatitis C virus genotype 1b, UniProt Q9WMX2)
T1 construct: The first 181 amino acids of NS3 (residues 1027-1207 of the viral polyprotein); hexa-histidine (C); made in house; host or cells: E. coli BL21/DE3 pLysS
Experiment: biochemical
Conditions: Enzyme Assay 1 (HCV NS3 Protease Domain Peptide Cleavage Assay) activity, apparent Ki class

T1 sequence (Q9WMX2 1027-1207, other chains not shown): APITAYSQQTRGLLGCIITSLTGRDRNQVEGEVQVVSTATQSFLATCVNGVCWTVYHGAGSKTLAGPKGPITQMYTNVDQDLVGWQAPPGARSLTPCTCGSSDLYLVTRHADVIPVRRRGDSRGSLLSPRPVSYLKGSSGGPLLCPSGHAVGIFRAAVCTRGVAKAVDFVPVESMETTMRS

Compound | Ki
CCC[C@H](NC(=O)[C@@H]1C[C@]2(CC(c3cccc(Cl)c3)=NO2)CN1C(=O)[C@@H](NC(=O)N1CCC2(CC1)CC(=O)c1ccccc12)C(C)(C)C)C(=O)C(=O)NC1CC1 [Compound 291] | > 500 nM
CCC[C@H](NC(=O)[C@@H]1C[C@]2(CC(c3cccc(Cl)c3)=NO2)CN1C(=O)[C@@H](NC(=O)CC1CCCCC1)C(C)(C)C)C(=O)C(=O)NC1CC1 [Compound 294] | 100 to 500 nM
CCC[C@H](NC(=O)[C@@H]1C[C@]2(CC(c3ccc(Cl)cc3)=NO2)CN1C(=O)[C@@H](NC(=O)CC1CCOCC1)C(C)(C)C)C(=O)C(=O)NC1CC1 [Compound 299] | > 500 nM
CCC[C@H](NC(=O)[C@@H]1C[C@]2(CC(c3ccc(F)c(Cl)c3)=NO2)CN1C(=O)[C@@H](NC(=O)O[C@H]1CCOC1)C(C)(C)C)C(=O)C(=O)NC1CC1 [Compound 301] | 100 to 500 nM
CCC[C@H](NC(=O)[C@@H]1C[C@]2(CC(c3cccnc3)=NO2)CN1C(=O)[C@@H](NC(=O)CC1CCCCC1)C(C)(C)C)C(=O)C(=O)NC1CC1 [Compound 303] | > 500 nM
CCC[C@H](NC(=O)[C@@H]1C[C@]2(CC(c3cccc(Cl)c3)=NO2)CN1C(=O)[C@@H](NC(=O)OCC1CCCCO1)C(C)(C)C)C(=O)C(=O)NC1CC1 (stereo partly shown) [Compound 308] | 100 to 500 nM
CCC[C@H](NC(=O)[C@@H]1C[C@]2(CC(c3cccc(Cl)c3)=NO2)CN1C(=O)[C@@H](NC(=O)C1CCCCC1C(=O)N1CCCC1)C(C)(C)C)C(=O)C(=O)NC1CC1 (stereo partly shown) [Compound 311] | > 500 nM
CCC[C@H](NC(=O)[C@@H]1C[C@]2(CC(c3cc(Cl)c(OC)cc3OC)=NO2)CN1C(=O)NCc1ccccc1)C(=O)C(=O)NC1CC1 [Compound 313] | > 500 nM
CCC[C@H](NC(=O)[C@@H]1C[C@]2(CC(c3cccc(Cl)c3)=NO2)CN1C(=O)[C@@H](NC(=O)C(C)N1Cc2ccccc2C1=O)C(C)(C)C)C(=O)C(=O)NC1CC1 (stereo partly shown) [Compound 317] | > 500 nM
CCC[C@H](NC(=O)[C@@H]1C[C@]2(CC(c3cccc(Cl)c3)=NO2)CN1C(=O)[C@@H](NC(=O)CC(C)(C)C)C(C)(C)C)C(=O)C(=O)NC1CC1 [Compound 319] | 100 to 500 nM
CCC[C@H](NC(=O)[C@@H]1C[C@]2(CC(c3ccc(Cl)c(Cl)c3)=NO2)CN1C(=O)[C@@H](NC(=O)CC1CCCCC1)C(C)(C)C)C(=O)C(=O)NC1CC1 [Compound 323] | 100 to 500 nM
CCC[C@H](NC(=O)[C@@H]1C[C@]2(CC(c3cccc(Cl)c3)=NO2)CN1C(=O)[C@@H](NC(=O)c1cccc([C@@H](C)C#N)c1)C(C)(C)C)C(=O)C(=O)NC1CC1 [Compound 324] | > 500 nM
CCC[C@H](NC(=O)[C@@H]1C[C@]2(CC(c3cc(C(F)(F)F)cc(C(F)(F)F)c3)=NO2)CN1C(=O)[C@@H](NC(=O)O[C@H]1CCOC1)C(C)(C)C)C(=O)C(=O)NC1CC1 [Compound 330] | 100 to 500 nM
CCC[C@H](NC(=O)[C@@H]1C[C@]2(CC(c3ccc(F)cc3)=NO2)CN1C(=O)[C@@H](NC(C)=O)C(C)(C)C)C(=O)C(=O)NC1CC1 [Compound 331] | > 500 nM
CCC[C@H](NC(=O)[C@@H]1C[C@]2(CC(c3cccc(Cl)c3)=NO2)CN1C(=O)[C@@H](NC(=O)N[C@@H](C)c1ccccc1)C(C)(C)C)C(=O)C(=O)NC1CC1 [Compound 333] | 100 to 500 nM
CCC[C@H](NC(=O)[C@@H]1C[C@]2(CC(c3cccc(Cl)c3)=NO2)CN1C(=O)[C@@H](NC(=O)[C@@H](C)Cc1ccccc1)C(C)(C)C)C(=O)C(=O)NC1CC1 [Compound 334] | > 500 nM
CCC[C@H](NC(=O)[C@@H]1C[C@]2(CC(c3ccc(OC)cc3OC)=NO2)CN1C(=O)[C@@H](NC(=O)OCc1ccccc1)C(C)(C)C)C(=O)C(=O)NC1CC1 [Compound 335] | > 500 nM
CCC[C@H](NC(=O)[C@@H]1C[C@]2(CC(C(=O)NCc3ccccc3)=NO2)CN1C(=O)[C@@H](NC(=O)O[C@H]1CCOC1)C(C)(C)C)C(=O)C(=O)NC1CC1 [Compound 341] | > 500 nM
CCC[C@H](NC(=O)[C@@H]1C[C@]2(CC(c3cccc(Cl)c3)=NO2)CN1C(=O)[C@@H](Nc1ncc(C)cc1[N+](=O)[O-])C(C)(C)C)C(=O)C(=O)NC1CC1 [Compound 345] | > 500 nM

Reference: patent publication US7964624B1, “Inhibitors of serine proteases” (priority 2005, dated 2011)
